The record followed here is US20200405697A1, “Antitumor Agent” (Taiho Pharmaceutical Co., Ltd, priority 2017, published 2020).

Each structure is given as a SMILES string.

The assay concerns the target T1, human RNR (histidine tagged human M1 and human M2 proteins) (Homo sapiens, UniProt P23921).
T1 construct: made in house; host or cells: Escherichia coli
T1 sequence (P23921 1-792): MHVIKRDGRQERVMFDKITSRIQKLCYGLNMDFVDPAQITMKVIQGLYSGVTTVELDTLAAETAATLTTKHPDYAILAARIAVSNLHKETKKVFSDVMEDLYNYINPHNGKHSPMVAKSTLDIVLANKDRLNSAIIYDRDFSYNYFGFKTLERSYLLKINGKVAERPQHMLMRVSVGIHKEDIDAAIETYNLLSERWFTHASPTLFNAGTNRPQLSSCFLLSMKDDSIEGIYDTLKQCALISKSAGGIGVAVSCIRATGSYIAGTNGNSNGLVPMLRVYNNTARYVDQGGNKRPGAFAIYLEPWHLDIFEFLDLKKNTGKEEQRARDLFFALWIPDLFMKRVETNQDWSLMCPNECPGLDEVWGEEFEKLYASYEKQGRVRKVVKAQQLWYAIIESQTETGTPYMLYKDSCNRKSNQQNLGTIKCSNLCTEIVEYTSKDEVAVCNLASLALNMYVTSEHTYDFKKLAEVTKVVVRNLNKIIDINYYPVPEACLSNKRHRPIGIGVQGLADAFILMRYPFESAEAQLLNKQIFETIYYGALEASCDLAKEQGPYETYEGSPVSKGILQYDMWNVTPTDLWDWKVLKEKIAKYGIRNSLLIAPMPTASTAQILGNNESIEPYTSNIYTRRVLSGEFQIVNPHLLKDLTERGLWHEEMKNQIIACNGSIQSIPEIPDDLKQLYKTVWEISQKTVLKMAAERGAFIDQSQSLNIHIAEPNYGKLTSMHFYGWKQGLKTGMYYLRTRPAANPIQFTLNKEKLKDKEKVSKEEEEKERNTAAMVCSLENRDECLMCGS
As to the kind of experiment: Human RNR inhibition effect (dCDP formation from CDP). It is filed as biochemical. Conditions: 10 μM CDP, 37° C. for 30 minutes, read-out: RNR inhibitory activity IC50. The essentials: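 His-tagged human M1 (isoform 1) and N-terminal 59-aa-truncated M2 (isoform 2), E. coli-expressed, Ni-purified, preincubated 20 min with compound (1% DMSO). Reaction with 10 μM CDP, 2 mM ATP, 0.24 mM NADPH, 6 mM DTT, 4 mM Mg acetate, 100 mM KCl, 50 mM HEPES pH 7.2, 30 min at 37° C. dCDP formed quantified by reverse-phase HPLC after heat stop.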

In the case of `CCc1ccc(S(=O)(=O)N[C@H](c2n[nH]c(=O)o2)[C@H](C)c2c(F)ccc(C)c2C)c(C(N)=O)c1` [Example 18, 5-Ethyl-2-(N-((1S,2R)-2-(6-fluoro-2,3-dimethylphenyl)-1-(5-oxo-4,5-dihydro-1,3,4-oxadiazol-2-yl)propyl)sulfamoyl)benzamide], the IC50 (as a rule, the concentration at which inhibition is half-maximal) turned out to be 130 nM.
To `COc1ccc(-c2cc(S(=O)(=O)N[C@H](c3n[nH]c(=O)o3)[C@H](C)c3c(F)ccc(C)c3C)ccc2Cl)cc1` [Example 344, 6-chloro-N-((1S,2R)-2-(6-fluoro-2,3-dimethylphenyl)-1-(5-oxo-4,5-dihydro-1,3,4-oxadiazol-2-yl)propyl)-4′-methoxy-[1,1′-biphenyl]-3-sulfonamide] belongs 720 nM; to `Cc1cccc2cccc([C@@H](C)[C@H](NS(=O)(=O)c3ccc(Cl)c4c3OCCC4(F)F)c3n[nH]c(=O)o3)c12` [Example 81, 5-chloro-4,4-difluoro-N-((1S,2R)-2-(8-methylnaphthalen-1-yl)-1-(5-oxo-4,5-dihydro-1,3,4-oxadiazol-2-yl)propyl)chroman-8-sulfonamide], 280 nM; to `COc1cc(Cl)ccc1S(=O)(=O)N[C@H](c1n[nH]c(=O)o1)[C@H](C)c1c(F)ccc(-c2cnn(C3CC3)c2)c1C` [Example 311, 4-chloro-N-((1S,2R)-2-(3-(1-cyclopropyl-1H-pyrazol-4-yl)-6-fluoro-2-methylphenyl)-1-(5-oxo-4,5-dihydro-1,3,4-oxadiazol-2-yl)propyl)-2-methoxybenzenesulfonamide], 220 nM.
As to `Cc1ccc(F)c([C@@H](C)[C@H](NS(=O)(=O)c2cccc3c2OC(C)(C)CC3=O)c2n[nH]c(=O)o2)c1C` [Example 97, N-((1S,2R)-2-(6-fluoro-2,3-dimethylphenyl)-1-(5-oxo-4,5-dihydro-1,3,4-oxadiazol-2-yl)propyl)-2,2-dimethyl-4-oxochroman-8-sulfonamide], the IC50 amounted to 240 nM.
With `Cc1ccc(S(=O)(=O)N[C@H](c2n[nH]c(=O)o2)[C@H](C)c2c(F)ccc(C)c2C)c(C(N)=O)c1` [Example 10, 2-(N-((1S,2R)-2-(3-6-fluoro-2,3-dimethylphenyl)-1-(5-oxo-4,5-dihydro-1,3,4-oxadiazol-2-yl)propyl)sulfamoyl)-5-methylbenzamide] the figure was 140 nM.
To `Cc1ccc(F)c([C@@H](C)[C@H](NS(=O)(=O)c2cccc3c2OCCO3)c2n[nH]c(=O)o2)c1C` [Example 164, N-((1S,2R)-2-(6-fluoro-2,3-dimethylphenyl)-1-(5-oxo-4,5-dihydro-1,3,4-oxadiazol-2-yl)propyl)-2,3-dihydrobenzo[b][1,4]dioxin-5-sulfonamide] belongs 330 nM; to `COc1ncc(-c2ccc(F)c([C@@H](C)[C@H](NS(=O)(=O)c3ccc(Cl)cc3OC)c3n[nH]c(=O)o3)c2C)cn1` [Example 319, 4-chloro-N-((1S,2R)-2-(6-fluoro-3-(2-methoxypyrimidin-5-yl)-2-methylphenyl)-1-(5-oxo-4,5-dihydro-1,3,4-oxadiazol-2-yl)propyl)-2-methoxybenzenesulfonamide], 280 nM; to `Cc1ccc(F)c([C@@H](C)[C@H](NS(=O)(=O)c2ccc(F)c3c2OCCC3(C)O)c2n[nH]c(=O)o2)c1C` (single isomer, unassigned) [Example 224B], 100 nM.
To `Cc1ccc(F)c([C@@H](C)[C@H](NS(=O)(=O)c2ccc3c(c2)C(C)(O)CCO3)c2n[nH]c(=O)o2)c1C` (stereo partly drawn) [Example 195, N-((1S,2R)-2-(6-fluoro-2,3-dimethylphenyl)-1-(5-oxo-4,5-dihydro-1,3,4-oxadiazol-2-yl)propyl)-4-hydroxy-4-methylchroman-6-sulfonamide] belongs 180 nM.
Regarding `Cc1ccc(F)c([C@@H](C)[C@H](NS(=O)(=O)c2cc(F)c(Cl)cc2C(=O)O)c2n[nH]c(=O)o2)c1C` [Example 217, 5-chloro-4-fluoro-2-(N-((1S,2R)-2-(6-fluoro-2,3-dimethylphenyl)-1-(5-oxo-4,5-dihydro-1,3,4-oxadiazol-2-yl)propyl)sulfamoyl)benzoic acid], the IC50 came to 960 nM.
As to `Cc1ccc(F)c([C@@H](C)[C@H](NS(=O)(=O)c2ccc3c(c2)C(=O)CCO3)c2n[nH]c(=O)o2)c1C` [Example 179, N-((1S,2R)-2-(6-fluoro-2,3-dimethylphenyl)-1-(5-oxo-4,5-dihydro-1,3,4-oxadiazol-2-yl)propyl)-4-oxochroman-6-sulfonamide], the IC50 was determined as 280 nM.
With `Cc1cccc2cccc([C@@H](C)[C@H](NS(=O)(=O)c3ccc(Cl)c4c3OCCC4O)c3n[nH]c(=O)o3)c12` (stereo partly drawn) [Example 232, 5-chloro-4-hydroxy-N-((1S,2R)-2-(8-methylnaphthalene-1-yl)-1-(5-oxo-4,5-dihydro-1,3,4-oxadiazol-2-yl)propyl)chroman-8-sulfonamide] the figure was 230 nM; with `Cc1ccc(F)c([C@@H](C)[C@H](NS(=O)(=O)c2ccc(Cl)c(C(=O)N3CCC4(CCC4)C3)n2)c2n[nH]c(=O)o2)c1C` [Example 115, 5-chloro-N-((1S,2R)-2-(6-fluoro-2,3-dimethylphenyl)-1-(5-oxo-4,5-dihydro-1,3,4-oxadiazol-2-yl)propyl)-6-(6-azaspiro[3.4]octane-6-carbonyl)pyridine-2-sulfonamide], 180 nM.
To `Cc1cccc(F)c1[C@@H](C)[C@H](NS(=O)(=O)c1ccc(Cl)cc1C(N)=O)c1n[nH]c(=O)o1` [Example 22, 5-chloro-2-(N-((1S,2R)-2-(2-fluoro-6-methylphenyl)-1-(5-oxo-4,5-dihydro-1,3,4-oxadiazol-2-yl)propyl)sulfamoyl)benzamide] belongs 340 nM; to `COc1cc(Cl)ccc1S(=O)(=O)N[C@H](c1n[nH]c(=O)o1)[C@H](C)c1cccc2c1CC(C)C2` (stereo partly drawn) [Example 67, 4-chloro-2-methoxy-N-((1S,2R)-2-(2-methyl-2,3-dihydro-1H-inden-4-yl)-1-(5-oxo-4,5-dihydro-1,3,4-oxadiazol-2-yl)propyl)benzenesulfonamide], 700 nM; to `Cc1ccc(F)c([C@@H](C)[C@H](NS(=O)(=O)c2cnc(Cl)cc2C(N)=O)c2n[nH]c(=O)o2)c1C` [Example 40, 2-chloro-5-(N-((1S,2R)-2-(6-fluoro-2,3-dimethylphenyl)-1-(5-oxo-4,5-dihydro-1,3,4-oxadiazol-2-yl)propyl)sulfamoyl)isonicotinamide], 130 nM.
Turning to `Cc1ccc(F)c([C@@H](C)[C@H](NS(=O)(=O)c2ccc(F)c(C(C)(C)O)c2F)c2n[nH]c(=O)o2)c1C` [Example 186, 2,4-difluoro-N-((1S,2R)-2-(6-fluoro-2,3-dimethylphenyl)-1-(5-oxo-4,5-dihydro-1,3,4-oxadiazol-2-yl)propyl)-3-(2-hydroxypropan-2-yl)benzenesulfonamide], the IC50 worked out at 90 nM.
Consider `CNC(=O)c1nc(S(=O)(=O)N[C@H](c2n[nH]c(=O)o2)[C@H](C)c2c(F)ccc(C)c2C)ccc1Cl` [Example 252, 3-chloro-6-(N-((1S,2R)-2-(6-fluoro-2,3-dimethylphenyl)-1-(5-oxo-4,5-dihydro-1,3,4-oxadiazol-2-yl)propyl)sulfamoyl)-N-methylpicolinamide], for which the IC50 came out at 60 nM.
To `Cc1ccc(F)c([C@@H](C)[C@H](NS(=O)(=O)c2ccc(Br)c(C#N)c2)c2n[nH]c(=O)o2)c1C` [Example 343, 4-bromo-3-cyano-N-((1S,2R)-(6-fluoro-2,3-dimethylphenyl)-1-(5-oxo-4,5-dihydro-1,3,4-oxadiazol-2-yl)propyl)benzenesulfonamide] belongs 640 nM; to `Cc1ccc(F)c([C@@H](C)[C@H](NS(=O)(=O)c2cccc3c2OCCC3(O)C(F)(F)F)c2n[nH]c(=O)o2)c1C` (stereo partly drawn) [Example 211A, N-((1S,2R)-2-(6-fluoro-2,3-dimethylphenyl)-1-(5-oxo-4,5-dihydro-1,3,4-oxadiazol-2-yl)propyl)-4-hydroxy-4-(trifluoromethyl)chroman-8-sulfonamide], 120 nM; to `Cc1ccc(F)c([C@@H](C)[C@H](NS(=O)(=O)c2ccc(Cl)c3c2OCCC3(O)C(F)(F)F)c2n[nH]c(=O)o2)c1C` (single isomer, unassigned) [Example 220B], 80 nM.
Turning to `COc1ccccc1-c1ccc(C(N)=O)c(S(=O)(=O)N[C@H](c2n[nH]c(=O)o2)[C@H](C)c2c(F)ccc(C)c2C)c1` [Example 345], the IC50 came to 250 nM.
On to `Cc1ccc(F)c([C@@H](C)[C@H](NS(=O)(=O)c2ccc(C(F)(F)F)c3c2OCCC3O)c2n[nH]c(=O)o2)c1C` (single isomer, unassigned) [Example 244A], for which the IC50 was determined as 90 nM.
